The test system of the test is Bovine cardiac myofibrils. The test is described as follows: In vitro model of dose-dependent myofibril ATPase modulation (AC1.4, pyruvate kinase/lactate dehydrogenase-coupled ATPase assay at pCa25). The settings on record: concentration at which ATPase activity was 1.4-fold higher than the bottom of the dose curve, mean of a minimum of two independent tests. It counts as biochemical. Summed up: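 Absorbance at 340 nm tracked ATP hydrolysis through pyruvate kinase/lactate dehydrogenase coupling (0.5 mM NADH, 1.5 mM PEP). Myofibrils from detergent-homogenized bovine heart, 1 mM ATP, pH 6.80, EGTA/CaCl2 buffering. Dose-response curves fitted with a four-parameter Hill equation.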
Turning to `N#CC1CN(S(=O)(=O)N2CCC[C@H](C(=O)N3CCC[C@@H]3C(=O)N[C@@H](CO)c3ccc(C(F)(F)F)cc3)C2)C1` [Example 561, 1-(((3S)-1-((3-cyano-1-azetidinyl)sulfonyl)-3-piperidinyl)carbonyl)-N-((1R)-2-hydroxy-1-(4-(trifluoromethyl)phenyl)ethyl)-D-prolinamide], the AC1.4 amounted to 2.9935 µM.

`COc1cc(CNC(=O)[C@H]2CCCN2C(=O)[C@H]2CCCN(S(=O)(=O)N3CC(C#N)C3)C2)ccc1C` [Example 387, 1-(((3S)-1-((3-cyano-1-azetidinyl)sulfonyl)-3-piperidinyl)carbonyl)-N-(3-methoxy-4-methylbenzyl)-D-prolinamide] yielded an AC1.4 of 1.34 µM. `NC(=O)[C@H]1C[C@H](S(=O)(=O)N2CCC[C@H](C(=O)N3CCC[C@@H]3C(=O)NCc3ccc(C(F)(F)F)cc3)C2)C1` [Example 626, 1-(((3S)-1-((trans-3-carbamoylcyclobutyl)sulfonyl)-3-piperidinyl)carbonyl)-N-(4-(trifluoromethyl)benzyl)-D-prolinamide] registered an AC1.4 of 4.031 µM. For `N#CC1CN(S(=O)(=O)N2CCC[C@H](C(=O)N3CCC[C@@H]3C(=O)NC3CC(CO)c4ccccc43)C2)C1` (stereo partly drawn) [Example 276, (2R)-1-((S)-1-((3-cyanoazetidin-1-yl)sulfonyl)piperidine-3-carbonyl)-N-(3-(hydroxymethyl)-2,3-dihydro-1H-inden-1-yl)pyrrolidine-2-carboxamide], the AC1.4 stood at 0.7014 µM. Turning to `O=C(NCc1ccc(C(F)(F)F)cc1)[C@H]1CCCN1C(=O)[C@H]1CCCN(S(=O)(=O)N2CCC2c2cccc(Br)c2)C1` (stereo partly drawn) [Example 180, 1-(((3S)-1-((-2-(3-bromophenyl)-1-azetidinyl)sulfonyl)-3-piperidinyl)carbonyl)-N-(4-(trifluoromethyl)benzyl)-D-prolinamide], the AC1.4 turned out to be 0.3256 µM. Take `CN1CCN(S(=O)(=O)N2CC(C#N)C2)CC1C(=O)N1CCC[C@@H]1C(=O)NCc1ccc(C(F)(F)F)cc1` (stereo partly drawn) [Example 639, (2R)-1-(4-((3-cyanoazetidin-1-yl)sulfonyl)-1-methylpiperazine-2-carbonyl)-N-(4-(trifluoromethyl)benzyl)pyrrolidine-2-carboxamide]: the AC1.4 was determined as 4.1855 µM. `Cc1ccc(C(C)NC(=O)[C@H]2CCCN2C(=O)[C@H]2CCCN(S(=O)(=O)N3CC(C#N)C3)C2)cc1` (stereo partly drawn) [Example 452, (2R)-1-((S)-1-((3-cyanoazetidin-1-yl)sulfonyl)piperidine-3-carbonyl)-N-(1-(p-tolyl)ethyl)pyrrolidine-2-carboxamide]: the AC1.4 is 1.8655 µM. The figure for `Cc1nnc(CNS(=O)(=O)N2CCC[C@H](C(=O)N3CCC[C@@H]3C(=O)NCc3ccc(C(F)(F)F)cc3)C2)o1` [Example 774, 1-(((3S)-1-(((5-methyl-1,3,4-oxadiazol-2-yl)methyl)sulfamoyl)-3-piperidinyl)carbonyl)-N-(4-(trifluoromethyl)benzyl)-D-prolinamide] is 8.3045 µM. The figure for `CNc1ccc(S(C)(=O)=O)cc1C(=O)N1CCC[C@@H]1C(=O)N[C@@H](c1ccc(C(F)(F)F)cc1F)C1CC1` [Example 228, N-((R)-cyclopropyl(2-fluoro-4-(trifluoromethyl)phenyl)methyl)-1-(2-(methylamino)-5-(methylsulfonyl)benzoyl)-D-prolinamide] is 0.4974 µM.

`O=C(N[C@@H](c1cc(F)c(Cl)cc1F)C1CC1)[C@H]1C[C@@H](O)CN1C(=O)c1ccnc(C(F)(F)F)c1` [Example 397, (4R)-N-((R)-(4-chloro-2,5-difluorophenyl)(cyclopropyl)methyl)-4-hydroxy-1-((2-(trifluoromethyl)-4-pyridinyl)carbonyl)-D-prolinamide]: the AC1.4 was determined as 1.361 µM. The same measure for `N#CC1CN(S(=O)(=O)N2CCC[C@H](C(=O)N3CCC[C@@H]3C(=O)NCc3cc(F)ccc3F)C2)C1` [Example 394, 1-(((3S)-1-((3-cyano-1-azetidinyl)sulfonyl)-3-piperidinyl)carbonyl)-N-(2,5-difluorobenzyl)-D-prolinamide]: 1.3725 µM. The figure for `O=C(N[C@@H](c1ccc(C(F)(F)F)cc1F)C1COC1)[C@H]1C[C@H]2C[C@H]2N1C(=O)c1ccnc(C(F)F)c1` [Example 480, (1R,3R,5R)-2-((2-(difluoromethyl)-4-pyridinyl)carbonyl)-N-((R)-(2-fluoro-4-(trifluoromethyl)phenyl)(3-oxetanyl)methyl)-2-azabicyclo[3.1.0]hexane-3-carboxamide] is 2.1525 µM.

On to `C[C@@H](NC(=O)[C@H]1CCCN1C(=O)[C@@H]1CN(S(=O)(=O)N2CC(C#N)C2)CCN1)c1ccc(C(F)(F)F)cc1` [Example 428, 1-(((2S)-4-((3-cyano-1-azetidinyl)sulfonyl)-2-piperazinyl)carbonyl)-N-((1R)-1-(4-(trifluoromethyl)phenyl)ethyl)-D-prolinamide], for which the AC1.4 came to 1.606 µM. The figure for `O=C(NCc1ccc(C(F)(F)F)cc1)[C@H]1CCCN1C(=O)[C@H]1CCCN(S(=O)(=O)N2CC(O)C2)C1` [Example 631, 1-(((3S)-1-((3-hydroxy-1-azetidinyl)sulfonyl)-3-piperidinyl)carbonyl)-N-(4-(trifluoromethyl)benzyl)-D-prolinamide] is 4.082 µM; for `N#CC1CN(S(=O)(=O)c2cccc(C(=O)N3CC4(CC4)C[C@@H]3C(=O)NCc3ccc(C(F)(F)F)cc3)c2)C1` [Example 15, (6R)-5-((3-((3-cyano-1-azetidinyl)sulfonyl)phenyl)carbonyl)-N-(4-(trifluoromethyl)benzyl)-5-azaspiro[2.4]heptane-6-carboxamide] it is 0.02315 µM; for `CS(=O)(=O)c1cc(C(=O)N2C[C@@H](F)C[C@@H]2C(=O)N[C@@H](c2cc(F)c(C(F)(F)F)cc2F)C2CC2)ccn1` [Example 416, (4S)-N-((R)-cyclopropyl(2,5-difluoro-4-(trifluoromethyl)phenyl)methyl)-4-fluoro-1-((2-(methylsulfonyl)-4-pyridinyl)carbonyl)-D-prolinamide] it is 1.528 µM. The figure for `O=C(NCc1ccc(C(F)(F)F)cc1)[C@H]1CCCN1C(=O)[C@H]1CCCN(S(=O)(=O)N2CC(O)(c3ccccc3)C2)C1` [Example 371, 1-(((3S)-1-((3-hydroxy-3-phenyl-1-azetidinyl)sulfonyl)-3-piperidinyl)carbonyl)-N-(4-(trifluoromethyl)benzyl)-D-prolinamide] is 1.216 µM; for `Cc1cc(Cl)ccc1CNC(=O)[C@H]1CCCN1C(=O)[C@H]1CCCN(S(=O)(=O)N2CC(C#N)C2)C1` [Example 119, N-(4-chloro-2-methylbenzyl)-1-(((3S)-1-((3-cyano-1-azetidinyl)sulfonyl)-3-piperidinyl)carbonyl)-D-prolinamide] it is 0.1819 µM; for `Cc1cc(F)cc(CNC(=O)[C@H]2CCCN2C(=O)[C@H]2CCCN(S(=O)(=O)N3CC(C#N)C3)C2)c1` [Example 498, 1-(((3S)-1-((3-cyano-1-azetidinyl)sulfonyl)-3-piperidinyl)carbonyl)-N-(3-fluoro-5-methylbenzyl)-D-prolinamide] it is 2.335 µM. The figure for `CC1(O)CC([C@@H](NC(=O)[C@H]2C[C@H]3C[C@H]3N2C(=O)c2cccc(S(C)(=O)=O)c2)c2cc(F)c(C(F)(F)F)cc2F)C1` (stereo partly drawn) [Example 829, (1R,3R,5R)-N-((R)-(2,5-difluoro-4-(trifluoromethyl)phenyl)(3-hydroxy-3-methylcyclobutyl)methyl)-2-(3-(methylsulfonyl)benzoyl)-2-azabicyclo[3.1.0]hexane-3-carboxamide] is 1.702 µM.

Consider `CC[C@H](NC(=O)[C@H]1CCCN1C(=O)[C@H]1CCCN(S(=O)(=O)N2CC(C#N)C2)C1)c1cc(F)cc(F)c1` [Example 468, 1-(((3S)-1-((3-cyano-1-azetidinyl)sulfonyl)-3-piperidinyl)carbonyl)-N-((1S)-1-(3,5-difluorophenyl)propyl)-D-prolinamide], for which the AC1.4 was found to be 1.9855 µM.

For `O=C(N[C@@H](c1ccc(C(F)(F)F)cc1F)C1CC1)[C@H]1C[C@H]2C[C@H]2N1C(=O)c1cncc(C(F)(F)F)c1` [Example 680, (1R,3R,5R)-N-((R)-cyclopropyl(2-fluoro-4-(trifluoromethyl)phenyl)methyl)-2-((5-(trifluoromethyl)-3-pyridinyl)carbonyl)-2-azabicyclo[3.1.0]hexane-3-carboxamide], the AC1.4 turned out to be 5.0333 µM.

In turn, `CC(C)[C@@H](NC(=O)[C@H]1CCCN1C(=O)[C@H]1CCCN(S(=O)(=O)N2CC(C#N)C2)C1)c1ccc(C(F)(F)F)cc1F` [Example 9, 1-(((3S)-1-((3-cyano-1-azetidinyl)sulfonyl)-3-piperidinyl)carbonyl)-N-((1R)-1-(2-fluoro-4-(trifluoromethyl)phenyl)-2-methylpropyl)-D-prolinamide] yielded an AC1.4 of 0.01995 µM. The same measure for `O=C(NCc1ccc(C(F)(F)F)cc1)[C@H]1CCCN1C(=O)[C@H]1CCCN(S(=O)(=O)N2CC(c3cccc(C(F)(F)F)c3)C2)C1` [Example 771, N-(4-(trifluoromethyl)benzyl)-1-(((3S)-1-((3-(3-(trifluoromethyl)phenyl)-1-azetidinyl)sulfonyl)-3-piperidinyl)carbonyl)-D-prolinamide]: 8.1415 µM; for `Cc1ccnc(C(=O)N2[C@@H](C(=O)N[C@@H](c3cc(F)c(C(F)(F)F)cc3F)C3CC3)C[C@H]3C[C@H]32)c1` [Example 658, (1R,3R,5R)-N-((R)-cyclopropyl(2,5-difluoro-4-(trifluoromethyl)phenyl)methyl)-2-((4-methyl-2-pyridinyl)carbonyl)-2-azabicyclo[3.1.0]hexane-3-carboxamide]: 4.159 µM. The figure for `O=C(NCc1ccc(C(F)(F)F)cc1)[C@H]1CCCN1C(=O)[C@H]1CCCN(S(=O)(=O)N2CC(F)(C3CC3)C2)C1` [Example 450, 1-(((3S)-1-((3-cyclopropyl-3-fluoro-1-azetidinyl)sulfonyl)-3-piperidinyl)carbonyl)-N-(4-(trifluoromethyl)benzyl)-D-prolinamide] is 1.8545 µM.

These data come from patent publication US11780826B2 (Amgen Inc., priority 2017, dated 2023).
